Data as given in patent US9145424B2, “Treatment of amyotrophic lateral sclerosis” (Northwestern University, priority 2008, dated 2015).
Where two headings read alike, the source gives them in different places.

Tested on: PC12 cells that express mutant G93A SOD1
Assay: Mutant SOD1-induced cytotoxicity protection assay
Details: for Corresponding % viability: rat, 48 h
Protocol: This idea was tested by examining the sensitivity of PC12 cells to SOD1 aggregates in the presence and absence of proteasome inhibitor MG132. PC12 cells expressing no SOD1, wild type SOD1, G85R SOD1 or G93A SOD1 were grown with or without MG132 (FIG. 1).
PC12 cells expressing G93A SOD1 were treated with 100 nM MG132 with or without co-treatment with geldanamycin or radicicol.

[1] = Rattus norvegicus, PC-12, read-out: Best EC50, PC12 G93A SOD1 cells, MG132, calcein-AM viability
[2] = Rattus norvegicus, PC-12, read-out: EC50 after Normalization, normalised with the corresponding 3299 EC50
[3] = read-out: Best EC50, PC12 G93A SOD1 cells, MG132, calcein-AM viability

Row | SMILES | EC50 [1] | Corresponding % viability | EC50 [2] | EC50 [3] | EC50 (read-out: EC50 after Normalization, normalised with the corresponding 3299 EC50)
1 | O=c1cc(CSc2ccccc2)[nH][nH]1 [CMB-053526-1] | 6850 nM | 77% | – | – | –
2 | CC(C)(C)c1ccc(SCc2cc(=O)[nH][nH]2)cc1 [CMB-053527-1] | 5380 nM | 150% | 2310 nM | – | –
3 | O=c1cc(CSc2ccc([N+](=O)[O-])cc2)[nH][nH]1 [CMB-053528-1] | 5590 nM | 136% | 2400 nM | – | –
4 | O=c1cc(CSc2ccc(Cl)cc2)[nH][nH]1 [CMB-053529-1] | – | 93% | 1930 nM | 4490 nM | –
5 | O=C1NN=C(CSc2ccccc2)C1=Cc1ccccc1 [CMB-053530-1] | > 32000 nM | – | – | – | –
6 | O=c1cc(CSc2ccc(Br)cc2)[nH][nH]1 [CMB-053543-1] | 4240 nM | 94% | 1800 nM | – | –
7 | O=c1cc(CSc2ccc(Cl)c(Cl)c2)[nH][nH]1 [CMB-053544-1] | 2600 nM | 113% | 1890 nM | – | –
8 | O=c1cc(CSc2ccc(Cl)cc2Cl)[nH][nH]1 [CMB-053545-1] | 1580 nM | 124% | 1150 nM | – | –
9 | O=c1cc(CSc2ccc(Cl)cc2)[nH]n1-c1ccccc1 [CMB-086473-1] | 5110 nM | 109% | 3460 nM | – | –
10 | O=c1cc(C[S+]([O-])c2ccc(Cl)cc2)[nH]n1-c1ccccc1 (stereo not drawn) [CMB-086474-1] | > 32000 nM | – | – | – | –
11 | O=c1cc(CS(=O)(=O)c2ccc(Cl)cc2)[nH][nH]1 [CMB-086475-1] | 6920 nM | 110% | 4700 nM | – | –
12 | CN(C)c1ccc(SCc2cc(=O)[nH][nH]2)cc1 [CMB-086476-1] | 1650 nM | 77% | – | – | –
13 | COc1ccc(SCc2cc(=O)[nH][nH]2)cc1 [CMB-086477-1] | 4210 nM | 102% | 1810 nM | – | –
14 | O=c1cc(CSc2ccc(F)cc2)[nH][nH]1 [CMB-086478-1] | 4730 nM | 104% | 3440 nM | – | –
15 | Cc1ccc(C)c(SCc2cc(=O)[nH][nH]2)c1 [CMB-086479-1] | 220 nM | 77% | – | – | –
16 | O=c1cc(CSc2c(Cl)cccc2Cl)[nH][nH]1 [CMB-086480-1] | 260 nM | 142% | 950 nM | – | –
17 | Cc1cc(SCc2cc(=O)[nH][nH]2)c(C)cc1Cl [CMB-086481-1] | – | 140% | 390 nM | 430 nM | –
18 | Cc1cc([S+]([O-])Cc2cc(=O)[nH][nH]2)c(C)cc1Cl (stereo not drawn) [CMB-086482-1] | 4470 nM | 123% | 2880 nM | – | –
19 | O=c1cc(CSc2ccc(F)cc2Cl)[nH][nH]1 [CMB-086832-1] | 1610 nM | 68% | – | – | –
20 | O=c1cc(CSc2cccc(Cl)c2)[nH][nH]1 [CMB-086833-1] | 250 nM | 148% | 1110 nM | – | –
21 | O=c1cc(CSc2ccccc2Cl)[nH][nH]1 [CMB-086834-1] | 840 nM | 123% | 3050 nM | – | –
22 | O=c1cc(CSc2cc(Cl)cc(Cl)c2)[nH][nH]1 [CMB-086835-1] | – | 134% | 170 nM | 80 nM | –
23 | O=c1cc(CSc2cc(Cl)cc(Cl)c2)[nH][nH]1 [CMB-086835-2] | – | 129% | – | 300 nM | 290 nM
24 | O=c1cc(CSc2ccc(Cl)cc2)[nH][nH]1 [CMB-086836-1] | 4140 nM | 75% | – | – | –
25 | O=c1cc(CSc2ccc(-c3ccccc3)cc2)[nH][nH]1 [CMB-086883-1] | 9440 nM | 115% | 4060 nM | – | –
26 | CC(C)c1ccccc1SCc1cc(=O)[nH][nH]1 [CMB-086899-1] | 400 nM | 106% | 480 nM | – | –
27 | O=c1cc(CSCCOc2ccccc2)[nH][nH]1 [CMB-086900-1] | 6210 nM | 97% | 7520 nM | – | –
